Patent US10800725B2, “Arylpropionyl-triketone antibacterial agents” (priority 2010, dated 2020)
≈ marks a conversion by molar mass, not a printed value.

Key:
[1] = target: S. aureus RNA polymerase core enzyme + σA (Staphylococcus aureus (strain NCTC 8325 / PS 47), UniProt P47768+Q2G0N5); assay: Fluorescence-detected RNA polymerase assay, S. aureus RNAP; assay type: biochemical
Method: (§1) Fluorescence-detected RNA polymerase assays with E. coli RNA polymerase were performed by a modification of the procedure of Kuhlman et al., 2004 [Kuhlman, P., Duff, H. & Galant, A. (2004) A fluorescence-based assay for multisubunit DNA-dependent RNA polymerases. Anal. Biochem. 324, 183-190]. Reaction mixtures contained (20 μl): 0-100 nM test compound, 75 nM E. coli RNA polymerase σ^70 holoenzyme, 20 nM 384 bp DNA fragment containing the bacteriophage T4 N25 promoter, 100 μM ATP, 100 μM GTP, 100 μM UTP, 100 μM CTP, 50 mM Tris-HCl, pH 8.0, 100 mM KCl, 10 mM MgCl2, 1 mM DTT, 10 μg/ml bovine serum albumin, and 5.5% glycerol. Reaction components other than DNA and NTPs were pre-incubated for 10 min at 37° C. Reactions were carried out by addition of DNA and incubation for 5 min at 37° C., followed by addition of NTPs and incubation for 60 min at 37° C. DNA was removed by addition of 1 μl 5 mM CaCl2 and 2 U DNaseI (Ambion, Inc.), followed by incubation for 90 min at 37° C. RNA was quantified by addition of 100 μl RiboGreen RNA Quantitation Reagent (Invitrogen, Inc.; 1:500 dilution in Tris-HCl, pH 8.0, 1 mM EDTA), followed by incubation for 10 min at 25° C., followed by measurement of fluorescence intensity [excitation wavelength=485 nm and emission wavelength=535 nm; QuantaMaster QM1 spectrofluorometer (PTI, Inc.)]. IC50 is defined as the concentration of inhibitor resulting in 50% inhibition of RNA polymerase activity.
(§2) Fluorescence-detected RNA polymerase assays with S. aureus RNA polymerase were performed as in Example 21.1, using reaction mixtures containing (20 μl): 0-100 nM test compound, 75 nM S. aureus RNA polymerase core enzyme, 300 nM S. aureus σ^A, 20 nM 384 bp DNA fragment containing the bacteriophage T4 N25 promoter, 100 μM ATP, 100 μM GTP, 100 μM UTP, 100 μM CTP, 40 mM Tris-HCl, pH 8.0, 80 mM NaCl, 5 mM MgCl2, 2.5 mM DTT, and 12.7% glycerol. IC50 is defined as the concentration of inhibitor resulting in 50% inhibition of RNA polymerase activity.

[2] = target: M. tuberculosis RNA polymerase core enzyme + σA (Mycobacterium tuberculosis (strain ATCC 25618 / H37Rv), UniProt P9WGY7+P9WGY9); assay: Fluorescence-detected RNA polymerase assay, M. tuberculosis RNAP; assay type: biochemical
Method: as §1
as §2, with “M. tuberculosis” for “S. aureus”

[3] = tested on: Mycobacterium tuberculosis H37Rv; assay: MIC, microplate Alamar Blue assay; details: read-out: MIC M. tuberculosis H37Rv
[4] = tested on: Enterococcus faecalis ATCC 19433; assay: MIC, spiral gradient endpoint assay; details: ATCC19433, read-out: MIC E. faecalis 19433
[5] = target: E. coli RNA polymerase σ70 holoenzyme (Escherichia coli (strain K12), UniProt P0A8T7+P0A8V2); assay: Fluorescence-detected RNA polymerase assay, E. coli RNAP; assay type: biochemical
Method: as §1

[6] = tested on: Escherichia coli D21f2tolC; assay: MIC, spiral gradient endpoint assay; details: read-out: MIC E. coli D21f2tolC
[7] = tested on: Staphylococcus aureus ATCC 12600; assay: MIC, spiral gradient endpoint assay; details: ATCC12600, read-out: MIC S. aureus 12600
[8] = tested on: Streptococcus pyogenes ATCC 12344; assay: MIC, spiral gradient endpoint assay (GC II agar, 5% CO2); details: ATCC12344, read-out: MIC S. pyogenes 12344
[9] = tested on: Moraxella catarrhalis ATCC 25238; assay: as above; details: ATCC25238, read-out: MIC M. catarrhalis 25238
[10] = tested on: Francisella tularensis SCHU4; assay: microbe, parasite or virus in culture; assay type: cell-based; details: SCHU4, read-out: MIC F. tularensis SCHU4
[11] = tested on: Bacillus anthracis Vollum-1b; assay: microbe, parasite or virus in culture; assay type: cell-based; details: VOLLUM1B, read-out: MIC B. anthracis Vollum-1b
[12] = tested on: Streptococcus pneumoniae ATCC 49619; assay: MIC, spiral gradient endpoint assay (GC II agar, 5% CO2); details: ATCC49619, read-out: MIC S. pneumoniae 49619

SMILES | IC50 [1] [nM] | IC50 [2] [nM] | MIC [3] [µg/mL] | MIC [4] [µg/mL] | IC50 [5] [nM] | MIC [6] [µg/mL] | MIC [7] [µg/mL] | MIC [8] [µg/mL] | MIC [9] [µg/mL] | MIC [10] [µg/mL] | MIC [11] [µg/mL] | MIC [12] [µg/mL]
CC(C)CCC1=C(O)C(CCC(C)C)(CCC(C)C)C(=O)C(C(=O)CCc2ccc(Br)cc2)=C1O [Compound 11, 3,5-dihydroxy-2-(3-(4-bromophenyl)propanoyl)-4,6,6-triisopentylcyclohexa-2,4-dienone] | 3300 | 780 | 50 (≈ 91.3 µM) | 2.6 (≈ 4.75 µM) | 890 | 3.3 (≈ 6.03 µM) | 0.8 (≈ 1.46 µM) |  |  |  |  | 
COc1ccccc1CCC(=O)C1=C(O)C(CCC(C)C)=C(O)C(CCC(C)C)(CCC(C)C)C1=O [Compound 4, 3,5-dihydroxy-2-(3-(2-methoxyphenyl)propanoyl)-4,6,6-triisopentylcyclohexa-2,4-dienone] | 4300 | 1600 | > 50 | 3 (≈ 6.02 µM) | 1900 | 12 (≈ 24.1 µM) | 0.6 (≈ 1.2 µM) | 15 (≈ 30.1 µM) | > 40 | > 50 | 0.098 (≈ 0.197 µM) | 2.7 (≈ 5.41 µM)
Cc1ccc(CCC(=O)C2=C(O)C(CCC(C)C)=C(O)C(CCC(C)C)(CCC(C)C)C2=O)cc1 [Compound 9, 3,5-dihydroxy-2-(3-(4-methylphenyl)propanoyl)-4,6,6-triisopentylcyclohexa-2,4-dienone] | 840 | 290 | 25 (≈ 51.8 µM) | 1 (≈ 2.07 µM) | 220 | 4.4 (≈ 9.12 µM) | 0.5 (≈ 1.04 µM) |  |  |  |  | 
CC(C)CCC1=C(O)C(CCC(C)C)(CCC(C)C)C(=O)C(C(=O)CCc2ccc(F)cc2)=C1O [Compound 10, 3,5-dihydroxy-2-(3-(4-fluorophenyl)propanoyl)-4,6,6-triisopentylcyclohexa-2,4-dienone] | 2200 | 640 | 50 (≈ 103 µM) | 2.7 (≈ 5.55 µM) | 530 | 2.7 (≈ 5.55 µM) | 0.5 (≈ 1.03 µM) |  |  |  |  | 
COc1cccc(CCC(=O)C2=C(O)C(CCC(C)C)=C(O)C(CCC(C)C)(CCC(C)C)C2=O)c1 [Compound 5, 3,5-dihydroxy-2-(3-(3-methoxyphenyl)propanoyl)-4,6,6-triisopentylcyclohexa-2,4-dienone] | 3100 | 1100 | 50 (≈ 100 µM) | 2 (≈ 4.01 µM) | 1100 | 2 (≈ 4.01 µM) | 0.4 (≈ 0.802 µM) | 7.1 (≈ 14.2 µM) | 19 (≈ 38.1 µM) | 1.56 (≈ 3.13 µM) | 0.049 (≈ 0.0983 µM) | 3.5 (≈ 7.02 µM)
CC(C)CCC1=C(O)C(CCC(C)C)(CCC(C)C)C(=O)C(C(=O)CCc2ccc(C(F)(F)F)cc2)=C1O [Compound 12, 3,5-dihydroxy-2-(3-(4-trifluoromethylphenyl)propanoyl)-4,6,6-triisopentylcyclohexa-2,4-dienone] | 460 | 220 | 25 (≈ 46.6 µM) | 0.5 (≈ 0.932 µM) | 120 | 4.3 (≈ 8.01 µM) | 0.6 (≈ 1.12 µM) |  |  |  |  | 
CCCCC1=C(O)C(CCCC)(CCCC)C(=O)C(C(=O)CCc2ccc(Cl)cc2)=C1O [Compound 14, 3,5-dihydroxy-2-(3-(4-chlorophenyl)propanoyl)-4,6,6-tributylcyclohexa-2,4-dienone] | 3100 | 680 | > 50 | 1.3 (≈ 2.82 µM) | 1100 | 0.6 (≈ 1.3 µM) | 0.5 (≈ 1.08 µM) |  |  |  |  | 
